Data: patent EP1336412A1, “Combinations of an antibiotic and a murein hydrolase inhibitor” (priority 2002, dated 2003)

Tests used:
[1] = test system: E. coli MHD52 (deletion of AmiABC); experiment: Growth of E. coli with inhibited murein septum cleavage (MHD52) after addition of agent; assay type: cell-based, Escherichia coli; settings: LB medium, 37°C, aerobic
Protocol: (§1) Bacteria were cultivated aerobically at 37° C in LB medium (J.H. Miller, Experiments in Molecular Genetics, Cold Spring Harbor Laboratory, Cold Spring Harbor (1972)). Agar plates contained 1.5 % agar (Gibco BRL, Paisley, Scotland). Growth was monitored by optical density readings at 578 nm in an Eppendorf photometer (Eppendorf, Hamburg, Germany). Antibiotics were used at the following concentrations: 50 (µg/ml ampicillin (amp), 50 (µg/ml kanamycin (kan), 20 (µg/ml chloramphenicol (cm) and 12.5 µg/ml tetracyclin (tet).
(§2) At the indicated time point (arrow) deoxycholate (1 g/l) or crystal violet (1 mg/l), respectively, were added. See the results in Fig. 4 (filled circles: wild type E. coli plus deoxycholate; filled triangles: MHD52 plus crystal violet; filled squares: MHD52 plus deoxycholate). Likewise, the cells were grown in the same manner, but at the indicated time point (arrow) vancomycin (20 µg/ml) was added. See the results in Fig. 5 (open circles: wild type E. coli; filled circles: wild type E. coli plus vancomycin; open squares: MHD52; filled squares: MHD52 plus vancomycin).

wild-type E. coli MC1061 = experiment: Growth of wild-type E. coli after addition of agent; assay type: cell-based, Escherichia coli; settings: vancomycin 20 µg/ml; LB medium, 37°C, aerobic; wild type (septum cleavage not inhibited)
Protocol: as §1, §2

[2] = test system: bacterial cells following the inhibition of the cleavage of the bacterial murein septum; experiment: Sensitivity of bacterial cells to detergents and high molecular weight antibiotics after inhibition of murein septum cleavage; assay type: cell-based

Compound | sensitivity of bacterial cells [2] | other results
CN(C)c1ccc(C(=C2C=CC(=[N+](C)C)C=C2)c2ccc(N(C)C)cc2)cc1 [crystal violet] | – | effect on growth (Fig. 4) ([1]; crystal violet 1 mg/l, MHD52): insignificant effect
CN[C@H](CC(C)C)C(=O)N[C@H]1C(=O)N[C@@H](CC(N)=O)C(=O)N[C@H]2C(=O)N[C@H]3C(=O)N[C@H](C(=O)N[C@H](C(=O)O)c4cc(O)cc(O)c4-c4cc3ccc4O)[C@H](O)c3ccc(c(Cl)c3)Oc3cc2cc(c3O[C@@H]2O[C@H](CO)[C@@H](O)[C@H](O)[C@H]2O[C@H]2C[C@](C)(N)[C@H](O)[C@H](C)O2)Oc2ccc(cc2Cl)[C@H]1O [vancomycin] | – | effect on growth (Fig. 5) ([1]; vancomycin 20 µg/ml, MHD52 (septum cleavage inhibited)): growth controlling effect; effect on growth (Fig. 5) (wild-type E. coli MC1061): normal growth
Triton X100 | significant increase in the sensitivity | –
mersacidin | significant increase in the sensitivity | –
ramoplanin | significant increase in the sensitivity | –
